Measurements from patent publication US20250136586A1, “Substituted 7-(Pyrimidin-4-yl)Quinolin-4(1H)-One Compounds as Cyclin Dependent Kinase Inhibitors” (BeiGene, Ltd., priority 2022, published 2025).

Tests used:
CDK4/Cyclin D1 = CDK4/Cyclin D1 (Homo sapiens (Human), UniProt P11802); assay: TR-FRET kinase inhibition assay, CDK4/Cyclin D1; format: biochemical; settings: 1 mM ATP, 0.15 μM Rb (Ser780)-biotin substrate, read-out: CDK4D1 IC50
Summary of the method: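 Kinase was preincubated with compound for 60 min at room temperature, then reacted with ATP and Rb (Ser780)-biotin substrate for 120 min. IC50 came from a four-parameter logistic fit.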

CDK6/Cyclin D3 = CDK6/Cyclin D3 (Homo sapiens (Human), UniProt Q00534); assay: TR-FRET kinase inhibition assay, CDK6/Cyclin D3; format: biochemical; settings: 1 mM ATP, 0.15 μM Rb (Ser780)-biotin substrate, read-out: CDK6D3 IC50
Chain of CDK6/Cyclin D3 (Q00534 whole entry): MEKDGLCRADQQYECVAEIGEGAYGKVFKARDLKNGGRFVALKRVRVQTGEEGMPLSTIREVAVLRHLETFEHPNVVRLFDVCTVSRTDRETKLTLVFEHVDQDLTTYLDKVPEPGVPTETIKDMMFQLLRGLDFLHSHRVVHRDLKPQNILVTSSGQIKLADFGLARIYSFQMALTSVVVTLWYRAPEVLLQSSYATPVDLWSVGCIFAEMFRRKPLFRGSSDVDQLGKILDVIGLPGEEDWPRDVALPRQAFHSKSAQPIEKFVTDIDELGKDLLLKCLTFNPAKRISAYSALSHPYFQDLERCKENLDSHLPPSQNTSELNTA
Chain of CDK6/Cyclin D3 (P30281 whole entry partner): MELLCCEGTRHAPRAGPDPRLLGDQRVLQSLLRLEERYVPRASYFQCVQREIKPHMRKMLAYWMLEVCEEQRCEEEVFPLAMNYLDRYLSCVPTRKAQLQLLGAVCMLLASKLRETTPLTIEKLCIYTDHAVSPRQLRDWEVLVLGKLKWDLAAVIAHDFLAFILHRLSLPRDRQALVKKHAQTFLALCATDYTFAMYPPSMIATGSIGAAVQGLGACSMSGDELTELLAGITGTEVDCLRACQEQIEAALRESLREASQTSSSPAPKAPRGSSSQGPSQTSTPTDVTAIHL
Summary of the method: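 Kinase preincubated 60 min at room temperature with 0–10 μM compound; reaction started with 1 mM ATP and 0.15 μM Rb (Ser780)-biotin, run 120 min at room temperature in HEPES pH 7.0, 50 mM MgCl2. pRb detected by TR-FRET (665/620 nm ratio); IC50 from four-parameter logistic fit.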

Chain of CDK4/Cyclin D1 (P11802 whole entry): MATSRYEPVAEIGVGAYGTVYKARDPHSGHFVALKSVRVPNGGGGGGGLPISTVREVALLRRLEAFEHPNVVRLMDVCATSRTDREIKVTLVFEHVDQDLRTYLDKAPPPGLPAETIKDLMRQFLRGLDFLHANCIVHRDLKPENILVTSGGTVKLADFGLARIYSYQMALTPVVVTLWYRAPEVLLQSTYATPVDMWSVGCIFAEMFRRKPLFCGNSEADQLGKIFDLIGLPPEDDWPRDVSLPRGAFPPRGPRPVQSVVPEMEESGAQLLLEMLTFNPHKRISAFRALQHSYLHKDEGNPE
Chain of CDK4/Cyclin D1 (P24385 whole entry partner): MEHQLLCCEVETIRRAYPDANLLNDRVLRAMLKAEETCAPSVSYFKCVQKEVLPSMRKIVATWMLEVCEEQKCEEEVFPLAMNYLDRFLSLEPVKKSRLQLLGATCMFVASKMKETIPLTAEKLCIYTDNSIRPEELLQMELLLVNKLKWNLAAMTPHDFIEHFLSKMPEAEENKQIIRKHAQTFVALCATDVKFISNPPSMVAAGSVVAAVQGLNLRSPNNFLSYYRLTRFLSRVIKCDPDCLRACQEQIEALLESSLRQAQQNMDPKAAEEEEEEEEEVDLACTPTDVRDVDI

With `Cc1c(CN2CCCC3(CCNC3=O)C2)n(C(C)C)c2cc(-c3nc(N[C@@H]4CCOC[C@H]4O)ncc3F)ccc2c1=O` (stereo partly drawn) [Example 124, 7-((7-(5-fluoro-2-(((3S,4R)-3-hydroxytetrahydro-2H-pyran-4-yl)amino)pyrimidin-4-yl)-1-isopropyl-3-methyl-4-oxo-1,4-dihydroquinolin-2-yl)methyl)-2,7-diazaspiro[4.5]decan-1-one] as the compound, how does the IC50 (CDK4/Cyclin D1) read?
Its IC50 is 5 nM.

What about the IC50 (CDK6/Cyclin D3) of the same compound?
The IC50 was 230 nM.

`Cc1c(CN2CC[C@](C)(O)C2)n(C(C)C)c2cc(-c3nc(N[C@@H]4CCOC[C@H]4O)ncc3F)ccc2c1=O` [Example 125, 7-(5-fluoro-2-(((3S,4R)-3-hydroxytetrahydro-2H-pyran-4-yl)amino)pyrimidin-4-yl)-2-(((S)-3-hydroxy-3-methylpyrrolidin-1-yl)methyl)-1-isopopyl-3-methylquinolin-4(1H)-one] was tested. Which IC50 (CDK4/Cyclin D1) did it give?
The IC50 was 15 nM.

What about the IC50 (CDK6/Cyclin D3) of the same compound?
The IC50 was 360 nM.

Which results are given for `Cc1c(C2CCN2)n(C(C)C)c2cc(-c3nc(N[C@@H]4CCOC[C@H]4O)ncc3F)ccc2c1=O` (stereo partly drawn) [Example 386, 2-(azetidin-2-yl)-7-(5-fluoro-2-(((3S,4R)-3-hydroxytetrahydro-2H-pyran-4-yl)amino)pyrimidin-4-yl)-1-isopropyl-3-methylquinolin-4(1H)-one]?
IC50 (CDK4/Cyclin D1): 12 nM; IC50 (CDK6/Cyclin D3): 375 nM

How did the IC50 (CDK4/Cyclin D1) turn out when `Cc1c(C2CCN2C)n(C(C)C)c2cc(-c3nc(N[C@@H]4CCOC[C@H]4O)ncc3F)ccc2c1=O` (stereo partly drawn) [Example 387, 7-(5-fluoro-2-(((3S,4R)-3-hydroxytetrahydro-2H-pyran-4-yl)amino)pyrimidin-4-yl)-1-isopropyl-3-methyl-2-(1-methylazetidin-2-yl)quinolin-4(1H)-one] was run?
The IC50 was 5.1 nM.

And the IC50 (CDK6/Cyclin D3)?
Its IC50 is 237 nM.

What does the source list for `CC(C)n1c(C2CCCN2)cc(=O)c2ccc(-c3nc(N[C@@H]4CCOC[C@H]4O)ncc3F)cc21` (stereo partly drawn) [Example 388, 7-(5-fluoro-2-(((3S,4R)-3-hydroxytetrahydro-2H-pyran-4-yl)amino)pyrimidin-4-yl)-1-isopropyl-2-(pyrrolidin-2-yl)quinolin-4(1H)-one]?
IC50 (CDK4/Cyclin D1): 10 nM; IC50 (CDK6/Cyclin D3): 450 nM

Which results are given for `Cc1c(C2CCCN2)n(C(C)C)c2cc(-c3nc(N[C@@H]4CCOC[C@H]4O)ncc3F)ccc2c1=O` (stereo partly drawn) [Example 389, 7-(5-fluoro-2-(((3S,4R)-3-hydroxytetrahydro-2H-pyran-4-yl)amino)pyrimidin-4-yl)-1-isopropyl-3-methyl-2-(pyrrolidin-2-yl)quinolin-4(1H)-one]?
IC50 (CDK4/Cyclin D1): 1.6 nM; IC50 (CDK6/Cyclin D3): 220 nM
